Experimental data: US20260376293A1, “METHODS FOR STUDYING GPR158 PHARMACOLOGY AND IDENTIFICATION OF ITS LIGANDS” (UNIVERSITY OF FLORIDA RESEARCH FOUNDATION, INCORPORATED, priority 2022, published 2026)

Molecular target: T1, GPR158 S266A mutant (Homo sapiens, UniProt Q5T848, S266A)
T1 construct: RGS7/Gβ5 co-expressed in the GAP BRET row only
T1 sequence (Q5T848 24-1215 S266A): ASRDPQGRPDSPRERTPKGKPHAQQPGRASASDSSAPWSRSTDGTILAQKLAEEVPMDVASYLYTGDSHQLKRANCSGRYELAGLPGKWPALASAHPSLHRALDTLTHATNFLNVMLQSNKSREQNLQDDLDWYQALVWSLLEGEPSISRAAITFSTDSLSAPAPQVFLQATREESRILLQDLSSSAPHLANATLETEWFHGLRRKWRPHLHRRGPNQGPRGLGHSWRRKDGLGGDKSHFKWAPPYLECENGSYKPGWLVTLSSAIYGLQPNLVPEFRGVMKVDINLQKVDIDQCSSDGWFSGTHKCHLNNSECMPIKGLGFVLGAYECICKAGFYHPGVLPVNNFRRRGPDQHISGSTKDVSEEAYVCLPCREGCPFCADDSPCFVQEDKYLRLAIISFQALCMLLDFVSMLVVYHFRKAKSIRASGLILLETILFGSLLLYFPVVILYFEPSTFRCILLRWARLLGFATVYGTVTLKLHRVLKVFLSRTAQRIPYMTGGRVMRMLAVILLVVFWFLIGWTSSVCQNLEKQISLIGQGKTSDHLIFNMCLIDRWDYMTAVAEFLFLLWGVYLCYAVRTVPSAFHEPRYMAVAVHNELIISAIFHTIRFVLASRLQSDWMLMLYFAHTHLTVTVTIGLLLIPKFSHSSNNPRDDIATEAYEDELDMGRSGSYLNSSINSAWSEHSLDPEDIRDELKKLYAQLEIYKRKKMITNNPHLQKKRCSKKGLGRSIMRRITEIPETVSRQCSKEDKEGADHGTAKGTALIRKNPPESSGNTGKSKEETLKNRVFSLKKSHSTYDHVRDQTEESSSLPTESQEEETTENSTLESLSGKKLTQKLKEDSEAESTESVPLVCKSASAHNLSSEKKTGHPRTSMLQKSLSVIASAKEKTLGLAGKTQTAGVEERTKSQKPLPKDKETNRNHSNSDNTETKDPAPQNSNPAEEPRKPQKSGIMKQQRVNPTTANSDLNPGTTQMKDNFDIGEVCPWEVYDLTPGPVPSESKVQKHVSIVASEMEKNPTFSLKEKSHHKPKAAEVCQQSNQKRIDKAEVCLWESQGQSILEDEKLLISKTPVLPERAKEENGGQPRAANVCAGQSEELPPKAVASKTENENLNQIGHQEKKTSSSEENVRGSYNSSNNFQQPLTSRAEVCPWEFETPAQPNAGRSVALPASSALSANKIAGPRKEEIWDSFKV
Assay: GAP BRET assay on GPR158 mutant S266A
Format: cell-based
Source text: FIGS. 11A-11G. Probing Cache domain of GPR158 as a ligand binding site A) Computational docking of glycine into putative ligand binding pocket on GPR158 Cache domain. Glycine and directly interacting residues are shown as sticks. Hydrogen bonds and van der Waals interactions are shown as dotted lines. B) Diagram showing interactions in the docked model of glycine against GPR158 Cache domain. Hydrogen bonds are shown as dashed lines, van der Waals interactions are shown as intersecting semicircles, and the secondary structural context of Ser266 and Tyr269 is shown as an arc. Dagger indicates a residue implicated in glycine binding in 11A. […] Error bars are mean±s.e.m. of 3 independent experiments in triplicate. *p<0.05, **p<0.01, ***p<0.001, ****p<0.0001, ns=p>0.05, two-way ANOVA Columns with no fill (Ctrl), columns with angled-line fill (Glycine) E) Quantification of glycine inhibitory effect on kGAP normalized to the effect seen with WT receptor. […]
Cellular measurements of BRET between Venus-Gβ1γ2 and masGRK3ct-Nluc were performed to examine GAP activity of RGS protein in living cells (described in detail in Masuho et al., 2015 (40)). […] The BRET signal was determined by calculating the ratio of the light emitted by the Venus-Gβ1γ2 (535 nm with a 30 nm band path width) over the light emitted by the masGRK3ct-Nluc (475 nm with a 30 nm band path width). […]

regulation of mutant activity by glycine: unable to be regulated
SMILES: NCC(=O)O [glycine]
